The source made the active and inactive calls.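 The calls were made as follows: active = max delta Tm melting temperature shift above 1 degree C at some tested dose; inactive = the rest.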

The assay deals with Kelch-like ECH-associated protein 1 (Homo sapiens) (UniProt Q14145). Description: Keap1 Kelch domain binders by melting shift, dose response, orthogonal assay for Keap1-Nrf2 interaction inhibitor project, biophysical, thermal shift, RT-PCR instrument, dry powder (AID 651829). As to conditions: Recombinant Keap1 Kelch domain, Sypro Orange, stronger effect = higher value.
Chain of Kelch-like ECH-associated protein 1 (Homo sapiens) (Q14145 whole entry, looked up, the tested form may be a part): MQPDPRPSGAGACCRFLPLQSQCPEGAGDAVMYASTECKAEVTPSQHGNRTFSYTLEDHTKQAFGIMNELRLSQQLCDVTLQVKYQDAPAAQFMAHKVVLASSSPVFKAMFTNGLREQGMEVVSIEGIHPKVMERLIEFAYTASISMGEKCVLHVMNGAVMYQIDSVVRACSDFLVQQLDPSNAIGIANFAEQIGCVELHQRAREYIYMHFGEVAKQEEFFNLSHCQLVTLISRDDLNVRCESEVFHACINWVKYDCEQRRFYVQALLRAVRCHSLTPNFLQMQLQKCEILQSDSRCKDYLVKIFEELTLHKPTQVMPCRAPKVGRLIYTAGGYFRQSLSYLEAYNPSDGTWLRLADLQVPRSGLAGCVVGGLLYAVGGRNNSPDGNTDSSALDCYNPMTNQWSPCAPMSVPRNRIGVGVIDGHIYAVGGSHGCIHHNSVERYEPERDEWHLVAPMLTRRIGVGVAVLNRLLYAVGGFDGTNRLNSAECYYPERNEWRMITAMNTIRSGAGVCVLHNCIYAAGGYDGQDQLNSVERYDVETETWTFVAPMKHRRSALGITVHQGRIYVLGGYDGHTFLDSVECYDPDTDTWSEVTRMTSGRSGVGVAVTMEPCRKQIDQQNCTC

In the case of `C=CC(=O)NC[C@@H]1c2ccccc2CCN1C(=O)[C@@H]1CCCC[C@@H]1C(=O)O`, the max delta Tm (at 0.6 µM, top dose 38 µM) was 0.229 °C (inactive).

For the compound `O=C(O)[C@@H]1CCCN1C(=O)N1CCc2ccccc2[C@H]1CN1C(=O)c2ccccc2C1=O`, for the setting “at 38 µM, top dose 38 µM”, the max delta Tm is 2.21 degrees C.

For `O=C(O)c1ccccc1C(=O)NC[C@@H]1c2ccccc2CCN1C(=O)[C@@H]1CCCC[C@@H]1C(=O)O`, where the note is “at 0.16 µM, top dose 38 µM”, the max delta Tm is -0.037 °C (inactive).

Consider `O=C(O)C1CCCCC1C(=O)NCC1c2ccccc2CCN1C(=O)Cc1ccccc1` (stereo unspecified), for which, under “at 0.3 µM, top dose 38 µM”, the max delta Tm is 0.052 °C (inactive). On to `O=C(NC[C@@H]1c2ccccc2CCN1C(=O)[C@@H]1CCCC[C@@H]1C(=O)O)OCC1c2ccccc2-c2ccccc21`, for which the max delta Tm (at 0.6 µM, top dose 38 µM) is 0.138 °C (inactive).

As for `COC(=O)C1CCCCC1C(=O)N1CCc2ccccc2C1CN1C(=O)c2ccccc2C1=O` (stereo unspecified), the max delta Tm (at 0.16 µM, top dose 38 µM) is 0.175 °C (inactive).

Consider `CCOC(=O)C(C(=O)OCC)c1cc(CN2C(=O)c3ccccc3C2=O)c2ccccc2n1`, for which, where the note is “at 1.2 µM, top dose 38 µM”, the max delta Tm is 0.127 °C (inactive). Regarding `Cc1ccc(S(=O)(=O)NC[C@@H]2c3ccccc3CCN2C(=O)[C@@H]2CCCC[C@@H]2C(=O)O)c(C)c1`, where the note is “at 19.5 µM, top dose 38 µM”, the max delta Tm was 0.174 °C (inactive). For `O=C(Cc1ccccc1)NC[C@@H]1c2ccccc2CCN1C(=O)[C@@H]1CCCC[C@@H]1C(=O)O`, the max delta Tm (at 38 µM, top dose 38 µM) was 1.66 degrees C. On the same count and under the same terms, under `O=C(O)CCC(=O)N1CCc2ccccc2C1CN1C(=O)c2ccccc2C1=O` (stereo unspecified) stands 0.462 °C (inactive); under `O=C(O)[C@H]1CCCC[C@H]1C(=O)N1CCc2ccccc2[C@H]1CNS(=O)(=O)c1ccc([N+](=O)[O-])cc1`, 0.907 °C (inactive); under `O=C(O)C1CCCCC1C(=O)N1CCc2ccccc2C1CN1C(=O)[C@H]2CCCC[C@H]2C1=O` (stereo partly specified), 2.32 degrees C.

With `O=C(NC[C@@H]1c2ccccc2CCN1C(=O)[C@@H]1CCCC[C@@H]1C(=O)O)c1ccccc1`, the max delta Tm (at 0.16 µM, top dose 38 µM) is 0.132 °C (inactive). Turning to `O=C(O)C1CCCCC1C(=O)N1CCc2ccccc2[C@H]1C(=O)NC12CC3CC(CC(C3)C1)C2` (stereo partly specified), the max delta Tm (at 2.6 µM, top dose 38 µM) is -0.05 °C (inactive).

For `O=C1c2ccccc2C(=O)N1CC1=NCCc2ccccc21`, the max delta Tm (at 5 µM, top dose 38 µM) was -0.008 °C (inactive).

As to `COC(=O)[C@H]1CCCC[C@H]1C(=O)N1CCc2ccccc2[C@H]1CN1C(=O)c2ccccc2C1=O`, where the note is “at 1.2 µM, top dose 38 µM”, the max delta Tm is -0.022 °C (inactive). Turning to `CCOC(=O)Cc1nc(NS(=O)(=O)c2c(C)cc(C)cc2C)c2ccccc2n1`, the max delta Tm (at 0.6 µM, top dose 38 µM) is 0.029 °C (inactive).

With `O=C(NC[C@@H]1c2ccccc2CCN1C(=O)[C@@H]1CCCC[C@@H]1C(=O)O)c1ccc(CN2CCOCC2)cc1`, the max delta Tm (at 38 µM, top dose 38 µM) was 0.592 °C (inactive). Regarding `Cc1ccc(S(=O)(=O)NC(=O)[C@@H]2c3ccccc3CCN2C(=O)[C@@H]2CCCC[C@@H]2C(=O)O)cc1`, the max delta Tm (at 0.3 µM, top dose 38 µM) is 0.155 °C (inactive) and the max delta Tm (at 38 µM, top dose 38 µM) was 2.68 degrees C.

As to `O=C1c2ccccc2C(=O)N1CC1c2ccccc2CCN1C(=O)Cc1ccccc1` (stereo unspecified), the max delta Tm (at 0.08 µM, top dose 10 µM) is 0.259 °C (inactive). Turning to `C[C@@H](NC(=O)C1CCCC[C@H]1C(=O)O)c1ccccc1` (mixture of isomers), for the setting “at 38 µM, top dose 38 µM”, the max delta Tm is 0.005 °C (inactive).

Turning to `CCOC(=O)C(C(=O)OCC)c1cc(CNS(=O)(=O)c2ccc(C)cc2C)c2ccccc2n1`, the max delta Tm (at 0.3 µM, top dose 38 µM) was 0.118 °C (inactive). As for `O=C(O)[C@H]1CCCC[C@H]1C(=O)NC(CN1C(=O)c2ccccc2C1=O)c1ccccc1` (stereo partly specified), under “at 0.16 µM, top dose 38 µM”, the max delta Tm is 0.154 °C (inactive). Consider `Cc1ccc(S(=O)(=O)NNc2nc(C(C(=O)OC(C)C)C(=O)C(F)(F)F)nc3ccccc23)cc1` (stereo unspecified), for which the max delta Tm (at 0.3 µM, top dose 38 µM) was 0.2 °C (inactive). As for `O=C(O)C1CCCCC1C(=O)N1CCc2ccccc2C1c1ccccc1` (stereo unspecified), the max delta Tm (at 1.2 µM, top dose 38 µM) is -0.003 °C (inactive).
